Values joined by “and” are separate entries in the source; they are usually repeats but may differ in a detail not shown here. Equal entries are not always repeated. Where two headings read alike, the source gives them in different places.
Key:
pSmad2 in IPF PCLS = test: pSmad2 in precision cut lung slices (PCLS) from IPF patients; assay type: cell-based, human; settings: for IPF PCLS pSmad2/tSmad2 ratio: 1 µM compound, individual replicates n=1-3 (Fig 5f)
Procedure: Human fibrotic lung tissue was collected from human explants after transplantation. Tissue which the pathologist deemed suitable for research was inflated with 2–3% low boiling point agarose, with the agarose being allowed to set at 4 °C. PCLS were then cut at 400 μm on a vibrating microtome and cultured in DMEM media.

pSmad2 in lung tissue = test: Lung tissue pSmad2 in bleomycin-treated mice, single dose; assay type: in vivo, mouse
Procedure: (§1) For the measurement of concentration-dependent effects of αvβ6 and TGFβR1 inhibitors on TGFβ activation and signaling in NHBE cells, pSmad2 (normalized to GAPDH) was measured. pSmad2 and GAPDH was quantified using the Milliplex TGFβ Signaling Magnetic Bead Panel 6 plex (Merck Millipore, Billerica, MA, USA) luminex assay according to the manufacturer’s instructions. pSmad2 was determined using the same method for in vivo and ex vivo tissue and BAL samples, however data were normalized to tSmad2. tSmad2 was measured in the Pathscan Total Smad2 sandwich ELISA kit (Cell Signaling Technologies, London, UK), according to the manufacturer’s instructions with standard curves generated using recombinant GST-Smad2. βIG-H3 was determined in mouse and human BAL fluid samples using the mouse or human βIG-H3 DuoSet ELISA kit (R&D Systems, Abingdon, USA) respectively, according to the manufacturer’s instructions. PAI-1 was determined in mouse and human BAL fluid samples using the mouse or human PAI-1 Total antigen ELISA kit (Molecular Innovations, Novi, MI, USA) respectively, according to the manufacturer’s instructions.
(§2) Animal welfare followed the requirements of the Home Office Code of Practice for the Housing and Care of Animals used in Scientific Procedures. […] Play tunnels and bedding material were used to provide environmental enrichment. […]

pSmad2 in BAL cells = assay type: in vivo, mouse; settings: bleomycin mice
Procedure: as §1, §2

[1] = system: αvβ6-mediated TGFβ activation; test: cells; assay type: cell-based, human; settings: for activity: read-out: % inhibition of pSmad2 (NHBE cells); for IC50: Homo sapiens
[2] = 30 mg/kg p.o., 2 h post dosing, in words
[3] = SB-525334 30 mg/kg p.o., 2 h, individual animals, 30 mg/kg

SMILES | IPF PCLS pSmad2/tSmad2 ratio (pSmad2 in IPF PCLS; IPF PCLS) | pSmad2 levels in IPF PCLS (pSmad2 in IPF PCLS; in words) | pSmad2 levels in lung tissue (pSmad2 in lung tissue; [2]) | Lung tissue pSmad2/tSmad2 ratio (pSmad2 in lung tissue; [3]) | pSmad2 levels in BAL cells (pSmad2 in BAL cells; [2]) | BAL cell pSmad2/tSmad2 ratio (pSmad2 in BAL cells; [3]) | activity ([1]; Log [SB-525334] M -6) | activity ([1]; Log [SB-525334] M -9) | activity ([1]; Log [SB-525334] M -11.4) | pIC50 for inhibition of αvβ6-mediated TGFβ activation (pSmad2) ([1]; NHBE cells) | % pSmad2 in IPF PCLS (pSmad2 in IPF PCLS; SB-525334 1µM) | IC50 ([1]; NHBE cells, read-out: IC50 for inhibition of αvβ6-mediated TGFβ activation (pSmad2)) | IC50 ([1]; NHBE cells, read-out: pIC50 for inhibition of αvβ6-mediated TGFβ activation (pSmad2) (converted)) | activity ([1]; Log [GSK3008348] M -9) | activity ([1]; Log [GSK3008348] M -10.8) | activity [1] | IC50 (pSmad2 in IPF PCLS; Homo sapiens, IPF PCLS, 48 h, read-out: approximate IC50 for reduction of pSmad2)
O=C(O)C[C@@H]1Cc2ccc(OCCCNc3ccccn3)cc2CN(CC(F)(F)F)C1=O [SB-267268] | 0.766 and 0.64 and 0.76 | Neither compound inhibited pSmad2 levels |  |  |  |  |  |  |  |  |  |  |  |  |  |  | 
Cc1cccc(-c2[nH]c(C(C)(C)C)nc2-c2ccc3nccnc3c2)n1 [SB-525334] | 0.063 and 0.062 and 0.055 |  | significantly reduce | 0.09 and 0.07 and 0.1 and 0.13 | significantly reduce | 1.33 and 0.67 and 0.7 and 1.48 and 0.61 and 0.44 and 2.35 and 1.1 and 1 | 15% and 11% and 10% and 14% | 138% and 105% and 82% and 100% | 114% | 7.28 ± 0.13 | 1% and 0% and -1% |  |  |  |  |  | 
Cc1cc(C)n(-c2cccc([C@H](CC(=O)O)CN3CC[C@@H](CCc4ccc5c(n4)NCCC5)C3)c2)n1 [GSK3008348] |  |  |  |  |  |  |  |  |  |  |  | 0.15 nM | 0.741 nM | 47% and 37% and 58% and 41% | 108% | 92% and 95% | ~3 nM

— PMC7494911
